Common to all, as to test: Antiproliferative activity, kinase-dependent Ba/F3 cells (MTT/MTS)
Assay type in all cases: cell-based, murine

Experiment [1] concerns the target T1, BaF3-BCR/ABL (Homo sapiens, UniProt P00519).
T1 construct: fused on or other part: P11274 (Breakpoint cluster region protein)
The settings on record: 48 hours, cell viability, read-out: BCR/ABL IC50. Here is the method:
(§1) Following up on the kinome data, the ability of compounds disclosed in the present invention to inhibit proliferation of cells that are dependent on selected protein kinases was tested. […] In addition, compounds were assayed to measure their capacity to inhibit TIE1, LYN, EML4-ALK, INSR and HCK kinases.
(§2) The murine cell line used is the BaF/3 cell line transformed with BCR/ABL cDNA (BaF/3-p210) or BCR/ABL-T315I mutant (Ba/F3-p210-T315I). These cells are maintained in RPMI/10% fetal calf serum (RPMI/FCS) supplemented with penicillin 50 μg/mL, streptomycin 50 μg/mL and L-glutamine […]. Untransformed BaF/3 cells (Wt-BaF/3) are similarly maintained with the addition of 15% of WEHI conditioned medium as a source of IL3.
(§3) Cells were seeded at a density of 20,000 cells/well into 96-well plates.
(§4) The background control wells to which media with no cells added and the vehicle control wells were included on each plate in triplicate. Cell viability was determined using MTT (Sigma, St. Louis, Mo., USA) and MTS (Promega, Madison, Wis., USA), according to the manufacturer's instructions. Results were analyzed using GraphPad Prism 5.0 (GraphPad Software, San Diego, Calif.) and IC50 values were calculated from cell viability dose-response curves and defined as the concentration of compound needed to reduce cell viability to 50% of a vehicle control (DMSO) (Table 3).

In experiment [2] the target is T2, BaF3-BCR/ABL-T315I (Homo sapiens, UniProt P00519, T315I, cells depend on it).
T2 construct: fused on or other part: P11274 (Breakpoint cluster region protein)
As to conditions: 48 hours, cell viability, read-out: BCR/ABL T315I IC50. Here is the method:
as §1, §2, §3, §4

In experiment [3] the target is T3, BaF3-EML4-ALK (Homo sapiens, UniProt Q9UM73).
T3 construct: fused on or other part: Q9HC35 (Echinoderm microtubule-associated protein-like 4)
T3 sequence (Q9UM73 whole entry, change not shown, the tested form may be a part): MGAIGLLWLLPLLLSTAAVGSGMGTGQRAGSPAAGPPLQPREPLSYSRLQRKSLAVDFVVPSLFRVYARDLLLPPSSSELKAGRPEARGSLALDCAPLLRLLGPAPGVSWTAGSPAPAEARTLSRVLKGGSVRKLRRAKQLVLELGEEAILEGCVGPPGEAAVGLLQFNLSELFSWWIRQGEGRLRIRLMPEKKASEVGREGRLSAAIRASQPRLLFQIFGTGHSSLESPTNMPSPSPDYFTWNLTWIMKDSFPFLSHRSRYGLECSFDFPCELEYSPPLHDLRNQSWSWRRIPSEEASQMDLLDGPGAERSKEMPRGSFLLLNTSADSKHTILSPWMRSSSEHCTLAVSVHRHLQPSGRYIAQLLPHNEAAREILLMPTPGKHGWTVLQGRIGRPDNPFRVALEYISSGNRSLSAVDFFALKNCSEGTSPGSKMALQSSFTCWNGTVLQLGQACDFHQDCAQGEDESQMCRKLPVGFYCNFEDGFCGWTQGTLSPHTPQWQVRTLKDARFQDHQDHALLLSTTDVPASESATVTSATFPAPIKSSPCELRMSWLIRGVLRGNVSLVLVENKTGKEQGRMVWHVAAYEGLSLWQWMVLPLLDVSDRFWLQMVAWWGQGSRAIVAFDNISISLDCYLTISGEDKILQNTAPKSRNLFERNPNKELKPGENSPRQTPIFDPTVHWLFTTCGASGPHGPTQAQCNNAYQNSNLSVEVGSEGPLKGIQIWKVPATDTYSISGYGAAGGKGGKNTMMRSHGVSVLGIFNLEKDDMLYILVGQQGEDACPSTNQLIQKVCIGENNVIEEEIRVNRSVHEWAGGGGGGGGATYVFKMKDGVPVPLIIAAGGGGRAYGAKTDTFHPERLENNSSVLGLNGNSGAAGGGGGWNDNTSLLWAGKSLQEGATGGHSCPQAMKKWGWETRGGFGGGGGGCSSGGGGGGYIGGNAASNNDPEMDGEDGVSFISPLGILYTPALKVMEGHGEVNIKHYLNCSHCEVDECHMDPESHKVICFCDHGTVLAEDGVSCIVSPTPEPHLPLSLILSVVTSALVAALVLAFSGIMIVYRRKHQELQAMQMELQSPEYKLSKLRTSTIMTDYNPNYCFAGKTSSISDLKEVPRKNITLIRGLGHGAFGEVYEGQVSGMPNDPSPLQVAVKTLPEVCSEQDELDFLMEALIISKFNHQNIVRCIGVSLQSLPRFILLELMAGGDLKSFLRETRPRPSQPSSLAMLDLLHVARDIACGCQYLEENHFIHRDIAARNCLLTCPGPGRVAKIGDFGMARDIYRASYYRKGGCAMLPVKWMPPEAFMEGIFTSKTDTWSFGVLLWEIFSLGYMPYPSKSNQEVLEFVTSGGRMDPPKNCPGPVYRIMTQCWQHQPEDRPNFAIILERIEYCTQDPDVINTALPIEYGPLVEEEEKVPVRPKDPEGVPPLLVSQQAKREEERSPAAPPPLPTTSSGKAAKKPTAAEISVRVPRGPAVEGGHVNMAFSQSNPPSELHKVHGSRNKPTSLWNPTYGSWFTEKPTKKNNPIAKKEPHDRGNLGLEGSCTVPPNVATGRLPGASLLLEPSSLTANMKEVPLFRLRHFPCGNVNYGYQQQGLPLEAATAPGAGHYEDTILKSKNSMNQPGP
The settings on record: 48 hours, cell viability, read-out: EML4-ALK IC50. Here is the method:
as §1, §2, §3, §4
(§5) Cell proliferation assays of compounds of the invention against TIE1, LYN, EML4-ALK, INSR and Hck were conducted using identical methods as described above for BCR/ABL, except that BaF3-TEL-TIE1, BaF3-TEL-LYN, BaF3-EML4-ALK, BaF3-TEL-INSR, and BaF3-TEL-HCK are used instead of BaF3-BCR/ABL (Table 3 and 4).

For experiment [4], the target named is T4, BaF3-TEL-LYN (Homo sapiens, UniProt P07948).
T4 construct: fused on or other part: P41212 (Transcription factor ETV6)
T4 sequence (P07948 whole entry, change not shown, the tested form may be a part): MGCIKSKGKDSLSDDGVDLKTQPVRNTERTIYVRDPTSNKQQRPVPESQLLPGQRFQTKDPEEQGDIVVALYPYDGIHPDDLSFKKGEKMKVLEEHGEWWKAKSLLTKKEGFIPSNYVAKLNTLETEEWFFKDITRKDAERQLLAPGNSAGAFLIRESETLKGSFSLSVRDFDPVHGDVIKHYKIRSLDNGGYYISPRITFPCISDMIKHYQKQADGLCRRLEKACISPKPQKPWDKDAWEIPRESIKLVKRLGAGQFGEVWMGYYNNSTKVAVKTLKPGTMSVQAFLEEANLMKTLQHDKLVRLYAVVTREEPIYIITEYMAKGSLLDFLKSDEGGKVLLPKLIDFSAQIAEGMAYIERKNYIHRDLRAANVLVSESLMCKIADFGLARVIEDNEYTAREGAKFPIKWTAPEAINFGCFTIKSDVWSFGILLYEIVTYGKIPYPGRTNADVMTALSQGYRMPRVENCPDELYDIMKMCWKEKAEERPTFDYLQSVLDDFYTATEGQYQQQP
The settings on record: 48 hours, cell viability, read-out: tel-LYN IC50. Here is the method:
as §1, §2, §3, §4, §5

The target in experiment [5] is T5, BaF3-TEL-TIE1 (Homo sapiens, UniProt P35590).
T5 construct: fused on or other part: P41212 (Transcription factor ETV6)
T5 sequence (P35590 whole entry, change not shown, the tested form may be a part): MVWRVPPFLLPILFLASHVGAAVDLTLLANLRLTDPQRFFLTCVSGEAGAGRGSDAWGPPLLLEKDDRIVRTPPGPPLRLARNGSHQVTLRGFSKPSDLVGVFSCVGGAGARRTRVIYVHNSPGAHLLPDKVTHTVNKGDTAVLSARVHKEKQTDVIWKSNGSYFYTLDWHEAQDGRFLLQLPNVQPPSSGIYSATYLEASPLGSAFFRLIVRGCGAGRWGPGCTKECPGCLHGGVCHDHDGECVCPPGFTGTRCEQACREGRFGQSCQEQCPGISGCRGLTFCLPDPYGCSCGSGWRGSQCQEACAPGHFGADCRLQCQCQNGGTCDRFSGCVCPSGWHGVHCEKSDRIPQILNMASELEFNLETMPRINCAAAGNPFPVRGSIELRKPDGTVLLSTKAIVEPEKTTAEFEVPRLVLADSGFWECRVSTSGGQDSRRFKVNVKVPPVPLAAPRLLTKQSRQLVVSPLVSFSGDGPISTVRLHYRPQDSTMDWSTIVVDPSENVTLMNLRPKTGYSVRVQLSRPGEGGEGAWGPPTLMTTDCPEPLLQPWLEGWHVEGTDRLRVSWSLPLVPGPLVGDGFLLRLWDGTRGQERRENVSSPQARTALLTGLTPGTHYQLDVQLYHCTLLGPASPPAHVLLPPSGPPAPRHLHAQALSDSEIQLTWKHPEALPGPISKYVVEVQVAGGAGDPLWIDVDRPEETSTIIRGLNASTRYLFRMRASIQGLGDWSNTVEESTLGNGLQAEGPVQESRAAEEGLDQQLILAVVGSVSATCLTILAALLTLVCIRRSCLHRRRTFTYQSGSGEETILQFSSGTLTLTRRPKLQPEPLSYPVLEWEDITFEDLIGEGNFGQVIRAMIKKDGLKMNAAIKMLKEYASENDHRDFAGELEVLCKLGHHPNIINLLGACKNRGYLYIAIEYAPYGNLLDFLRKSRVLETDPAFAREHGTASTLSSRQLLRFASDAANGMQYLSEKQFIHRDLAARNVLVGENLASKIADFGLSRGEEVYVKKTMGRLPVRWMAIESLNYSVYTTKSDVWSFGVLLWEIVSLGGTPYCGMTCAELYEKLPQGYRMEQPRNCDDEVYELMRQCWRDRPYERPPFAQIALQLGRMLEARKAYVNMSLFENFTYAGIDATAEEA
The settings on record: 48 hours, cell viability, read-out: tel-TIE1 IC50. Here is the method: as §1, §2, §3, §4, §5

SMILES strings stand for the structures.

For the compound `CN1CN(c2ccc(Br)cc2F)Cc2cnc(Nc3ccc(N4CCOCC4)nc3)nc21` [ID-3, 6-(4-bromo-2-fluorophenyl)-8-methyl-N-(6-morpholinopyridin-3-yl)-5,6,7,8-tetrahydropyrimido[4,5-d]pyrimidin-2-amine], the GI50 in experiment [1] was greater than 10 µM; in experiment [2], greater than 10 µM; in experiment [3], 20 µM; in experiment [4], 7.27 µM; in experiment [5], 4.55 µM.
For the compound `CN1CN(c2ccc(F)c(Cl)c2)Cc2cnc(Nc3ccc(N4CCOCC4)nc3)nc21` [ID-2, 6-(3-chloro-4-fluorophenyl)-8-methyl-N-(6-morpholinopyridin-3-yl)-5,6,7,8-tetrahydropyrimido[4,5-d]pyrimidin-2-amine], the GI50 in experiment [1] was greater than 10 µM; in experiment [2] it was greater than 10 µM; in experiment [3] it was greater than 10 µM; in experiment [4], 20.5 µM; in experiment [5] it was 11.8 µM.
For the compound `Cc1ccc(Nc2ncc3c(n2)N(C)CN(c2cc(NC(=O)c4cccc(C(F)(F)F)c4)ccc2Cl)C3)cn1` [IC-7, N-(4-chloro-3-(1-methyl-7-((6-methylpyridin-3-yl)amino)-1,4-dihydropyrimido[4,5-d]pyrimidin-3(2H)-yl)phenyl)-3-(trifluoromethyl)benzamide], the GI50 was 9 µM in experiment [1]; greater than 10 µM in experiment [2]; 9.73 µM in experiment [3]; 5.34 µM in experiment [4]; 6.85 µM in experiment [5].
Consider `Cc1ccc(C(F)(F)F)cc1N1Cc2cnc(Nc3ccc(N4CCOCC4)nc3)nc2N(C)C1` [ID-4, 8-methyl-6-(2-methyl-5-(trifluoromethyl)phenyl)-N-(6-morpholinopyridin-3-yl)-5,6,7,8-tetrahydropyrimido[4,5-d]pyrimidin-2-amine], for which the GI50 is 1.63 µM in experiment [1]; greater than 10 µM in experiment [2]; 8.24 µM in experiment [3]; 4.29 µM in experiment [4]; 4.43 µM in experiment [5].
For `Cc1ccc(N)cc1N1Cc2cnc(Nc3ccc(N4CCOCC4)nc3)nc2N(C)C1` [ID-6, 6-(5-amino-2-methylphenyl)-8-methyl-N-(6-morpholinopyridin-3-yl)-5,6,7,8-tetrahydropyrimido[4,5-d]pyrimidin-2-amine], the GI50 in experiment [1] was 0.353 µM; in experiment [2], greater than 10 µM; in experiment [3], greater than 10 µM; in experiment [4] it was 2.31 µM; in experiment [5] it was 0.809 µM.
Take `CN1CN(c2ccc(Cl)c(C(F)(F)F)c2)Cc2cnc(Nc3ccc(N4CCOCC4)nc3)nc21` [ID-1, 6-(4-chloro-3-(trifluoromethyl)phenyl)-8-methyl-N-(6-morpholinopyridin-3-yl)-5,6,7,8-tetrahydropyrimido[4,5-d]pyrimidin-2-amine]: the GI50 in experiment [2], in experiment [3], in experiment [4] and in experiment [5] was greater than 10 µM throughout.
Turning to `CN1CN(c2cccc(C(F)(F)F)c2)Cc2cnc(Nc3ccc(N4CCOCC4)nc3)nc21` [ID-5, 8-methyl-N-(6-morpholinopyridin-3-yl)-6-(3-(trifluoromethyl)phenyl)-5,6,7,8-tetrahydropyrimido[4,5-d]pyrimidin-2-amine], the GI50 in experiment [2] was greater than 10 µM; in experiment [3], greater than 10 µM; in experiment [4], 15 µM; in experiment [5] it was 6.17 µM.

For the origin of these results see patent publication US10364247B2, “Preparation and use of novel protein kinase inhibitors” (Ruijin Hospital Affiliated to Shanghai Jiao Tong University …, priority 2015, dated 2019).
